The source of these data is paper PMC11913174 (Organic & biomolecular chemistry, 2024).

The test system of assay [1] is chloroquine-resistant Dd2 Plasmodium falciparum parasites. As to the kind of experiment: SYBR Green I antiplasmodial assay against chloroquine-resistant Dd2 parasites. The format is cell-based. The conditions noted are these: DD2, read-out: EC50 against Dd2.
The subject of assay [2] is 3D7 (wild-type) parasites. The assay is described as follows: Antiplasmodial dose-response against 3D7. The format is cell-based. The conditions noted are these: Plasmodium falciparum, 3D7, read-out: EC50 against 3D7.

What is called EC50 is the midpoint of the concentration-response curve. For the molecule `COC(=O)[C@H]1[C@H]2C[C@@H]3c4[nH]c5cc(OC)ccc5c4CCN3C[C@H]2C[C@@H](OC(=O)c2cc(OC)c(OC)c(OC)c2)[C@@H]1OC` [reserpine], the EC50 in assay [1] and in assay [2] was greater than 100 µM throughout.
